Measured values published in patent EP0909530A1, “Increased solubility of water soluble compounds” (BASF CORPORATION, priority 1997, dated 1999).

Experiment: Crystal formation in acifluorfen solution with co-solvents after cold storage (Example 2)
Assay type: physicochemical
Conditions: for Crystal Formation (%): stored at 5°C for 4 days, read at room temperature; for inhibition of precipitate: result in words
Procedure: An aqueous solution having a concentration of 46.8 % acifluorfen (sodium salt, Rohm and Haas, Inc.; significant crystallization observed) was heated to about 50°C to 60°C and stirred until the crystals dissolved (about ten hours). The solution was allowed to cool to room temperature. The dispersants were separately added to the solutions containing the acifluorfen to form a 1.0% solution (by weight) of the dispersant. The resulting samples were stored at 5°C for four days.
After four days, the samples were removed from storage and allowed to reach room temperature and the volume occupied by crystals was calculated (visual estimates) . The results were obtained by observation using a polarized Nikon Optiphot-2 Pol microscope.
Co-Solvents were evaluated for their ability to inhibit precipitation of acifluorfen in aqueous solutions. The experiment was carried-out using the same steps as described for the dispersants of Example 1. The co-solvents were evaluated at 5% and 10% by total weight of the solution. The formulations were stored at 5°C for 4 days and the percent crystal volume recorded after the temperature reached room temperature. […]

SMILES | Crystal Formation (%) (co-solvent Amount 5 %) | Crystal Formation (%) (co-solvent Amount 10 %) | inhibition of precipitate
CCCCOCCO [Butyl Cellosolve] | 10 | 15 | most significant inhibition
CC(O)CO (centres unmarked) [Propylene Glycol] | 10 | 80 | –
OCCO [Ethylene Glycol] | 10 | 15 | most significant inhibition
